pIC50: −log10 of the molar value. Like-named read-outs stand apart in the source and are kept apart here.

In experiment [1] the target is human IL-17A / human IL-17RA (Homo sapiens (Human), UniProt Q16552). Description: Human IL-17A biochemical assay (HTRF, blocking of IL-17A binding to IL-17RA). The following applies: 0.4 nM IL-17A, 0.3 nM IL-17RA, max compound concentration 10 uM. In a few lines: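 HTRF competition: 0.4 nM recombinant human IL-17A pre-incubated 3 h at room temperature with compound (top 10 uM, 2.7-fold, 10 points) in HEPES pH 7.5 buffer, then 0.3 nM IL-17RA added for 1 h, then anti-6His-Tb/anti-human IgG-XL665 detection for 1 h.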
human IL-17A / human IL-17RA, sequence (Q16552 24-155): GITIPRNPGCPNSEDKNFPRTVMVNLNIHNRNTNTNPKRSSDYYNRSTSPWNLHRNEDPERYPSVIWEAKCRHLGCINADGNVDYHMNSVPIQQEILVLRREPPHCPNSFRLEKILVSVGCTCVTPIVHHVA
In general terms: In TR-FRET formats the signal depends on donor and acceptor labels being close together.

Experiment [2] relates to IL-17-induced GROα secretion from HT-29 cells. Description: GROα release assay in human colorectal adenocarcinoma epithelial cell (HT-29, ELISA). It counts as cell-based. Particulars: 10 ng/mL IL-17A, highest concentration 10 μM, read-out: Cellular assay HT29 cell/CXCL1 IC50. In a few lines: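 HT-29 cells were exposed 48 h at 37°C to IL-17A (final 10 ng/mL) preincubated 15 min with compound (4-fold dilutions, top 10 μM). Secreted GROα was quantified by ELISA against a standard curve, and IC50 obtained by four-parameter fitting.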

As to `CNC(=O)C1(N2C[C@@H](C(C)C)NC2=O)Cc2ccc(NC(=O)[C@@H](NC(=O)c3nonc3C)C3CCC(F)(F)CC3)cc2C1` (stereo partly drawn) [Example 116, N-((1S)-1-(4,4-difluorocyclohexyl)-2-((2-((R)-4-isopropyl-2-oxoimidazolidin-1-yl)-2-(methylcarbamoyl)-2,3-dihydro-1H-inden-5-yl)amino)-2-oxoethyl)-4-methyl-1,2,5-oxadiazole-3-carboxamide], the pIC50 is 7.16 in experiment [1] and 6.38 in experiment [2] (Homo sapiens, HT-29, 48 h).

On to `CNC(=O)C1(N2CC3(CC3)CNC2=O)Cc2ccc(NC(=O)C(NC(=O)c3ccnn3C)C3CCC(C(C)C)CC3)cc2C1` (centres unmarked) [Example 152, N-(1-(4-isopropylcyclohexyl)-2-((2-(methylcarbamoyl)-2-(6-oxo-5,7-diazaspiro[2.5]octan-5-yl)-2,3-dihydro-1H-inden-5-yl)amino)-2-oxoethyl)-1-methyl-1H-pyrazole-5-carboxamide], for which the pIC50 is 8.00 in experiment [1] and 7.51 in experiment [2] (Homo sapiens, HT-29, 48 h).

Consider `CNC(=O)C1(N2C[C@@H](C(C)C)NC2=O)Cc2ccc(NC(=O)[C@@H](NC(=O)c3ccnn3CCO)C3CCCCC3)cc2C1` (stereo partly drawn) [Example 126, N-((1S)-1-cyclohexyl-2-((2-((R)-4-isopropyl-2-oxoimidazolidin-1-yl)-2-(methylcarbamoyl)-2,3-dihydro-1H-inden-5-yl)amino)-2-oxoethyl)-1-(2-hydroxyethyl)-1H-pyrazole-5-carboxamide], for which the pIC50 in experiment [1] is 7.14; in experiment [2] (Homo sapiens, HT-29, 48 h), 5.40.

Take `CC(C)[C@@H]1CN(C2(C(N)=O)Cc3ccc(NC(=O)[C@@H](NC(=O)c4ccnn4C)C4CCCCCC4)cc3C2)C(=O)N1` (stereo partly drawn) [Example 83, N-((1S)-2-((2-carbamoyl-2-((R)-4-isopropyl-2-oxoimidazolidin-1-yl)-2,3-dihydro-1H-inden-5-yl)amino)-1-cycloheptyl-2-oxoethyl)-1-methyl-1H-pyrazole-5-carboxamide]: the pIC50 was 7.66 in experiment [1] and 6.72 in experiment [2] (Homo sapiens, HT-29, 48 h).

In the case of `Cc1nonc1C(=O)N[C@H](C(=O)Nc1ccc2c(c1)CC(N1CC3(CC3)CNC1=O)(C(C)(C)O)C2)C1CCC(F)(F)CC1` (stereo partly drawn) [Example 247, N-((1S)-1-(4,4-difluorocyclohexyl)-2-((2-(2-hydroxypropan-2-yl)-2-(6-oxo-5,7-diazaspiro[2.5]octan-5-yl)-2,3-dihydro-1H-inden-5-yl)amino)-2-oxoethyl)-4-methyl-1,2,5-oxadiazole-3-carboxamide], the pIC50 in experiment [1] was 7.68; in experiment [2] (Homo sapiens, HT-29, 48 h) it was 7.39.

As to `Cc1nonc1C(=O)N[C@H](C(=O)Nc1ccc2c(c1)CC(C1C[C@@H](C(C)C)NC1=O)C2)C(C1CC1)C1CC1` (stereo partly drawn) [Example 211, N-((2S)-1,1-dicyclopropyl-3-((2-((5S)-5-isopropyl-2-oxopyrrolidin-3-yl)-2,3-dihydro-1H-inden-5-yl)amino)-3-oxopropan-2-yl)-4-methyl-1,2,5-oxadiazole-3-carboxamide], the pIC50 was 6.33 in experiment [1] and 5.43 in experiment [2] (48 hours).

Consider `CNC(=O)C1(N2CC(C)(C)NC2=O)Cc2ccc(NC(=O)[C@@H](NC(=O)c3ccnn3C)C3CCCCC3)cc2C1` (stereo partly drawn) [Example 20, N-((1S)-1-cyclohexyl-2-((2-(4,4-dimethyl-2-oxoimidazolidin-1-yl)-2-(methylcarbamoyl)-2,3-dihydro-1H-inden-5-yl)amino)-2-oxoethyl)-1-methyl-1H-pyrazole-5-carboxamide], for which the pIC50 in experiment [1] was 6.01; in experiment [2] (Homo sapiens, HT-29, 48 h) it was 6.32.

On to `CC(C)[C@@H]1CN(C2(C(=O)N(C)C)Cc3ccc(NC(=O)[C@@H](NC(=O)c4ccnn4C)C4CCCCC4)cc3C2)C(=O)N1` (stereo partly drawn) [Example 135, N-((1S)-1-cyclohexyl-2-((2-(dimethylcarbamoyl)-2-((R)-4-isopropyl-2-oxoimidazolidin-1-yl)-2,3-dihydro-1H-inden-5-yl)amino)-2-oxoethyl)-1-methyl-1H-pyrazole-5-carboxamide], for which the pIC50 is 6.73 in experiment [1] and 6.61 in experiment [2] (Homo sapiens, HT-29, 48 h).

Consider `COc1ccccc1NC(=O)C1(N2C[C@@H](C(C)C)NC2=O)Cc2ccc(NC(=O)[C@@H](NC(=O)c3nonc3C)C(C3CC3)C3CC3)cc2C1` (stereo partly drawn) [Example 254, N-((2S)-1,1-dicyclopropyl-3-((2-((R)-4-isopropyl-2-oxoimidazolidin-1-yl)-2-((2-methoxyphenyl)carbamoyl)-2,3-dihydro-1H-inden-5-yl)amino)-3-oxopropan-2-yl)-4-methyl-1,2,5-oxadiazole-3-carboxamide], for which the pIC50 is 6.75 in experiment [1] and 6.50 in experiment [2] (Homo sapiens, HT-29, 48 h).

`Cc1nonc1C(=O)N[C@H](C(=O)Nc1ccc2c(c1)OC(C(C)N1C[C@@H](C(F)(F)F)NC1=O)C2)C(C1CC1)C1CC1` (stereo partly drawn) [Example 276, N-((2S)-1,1-dicyclopropyl-3-oxo-3-((2-(1-((S)-2-oxo-4-(trifluoromethyl)imidazolidin-1-yl)ethyl)-2,3-dihydrobenzofuran-6-yl)amino)propan-2-yl)-4-methyl-1,2,5-oxadiazole-3-carboxamide]: the pIC50 in experiment [1] was 6.24; in experiment [2] (Homo sapiens, HT-29, 48 h) it was 5.83.

Consider `Cc1nonc1C(=O)N[C@H](C(=O)Nc1ccc2c(c1)CC(C(=O)Nc1cncs1)(N1C[C@@H](C(C)C)NC1=O)C2)C(C1CC1)C1CC1` (stereo partly drawn) [Example 285, N-((2S)-1,1-dicyclopropyl-3-((2-((R)-4-isopropyl-2-oxoimidazolidin-1-yl)-2-(thiazol-5-ylcarbamoyl)-2,3-dihydro-1H-inden-5-yl)amino)-3-oxopropan-2-yl)-4-methyl-1,2,5-oxadiazole-3-carboxamide], for which the pIC50 in experiment [1] is 7.15; in experiment [2] (Homo sapiens, HT-29, 48 h), 7.04.

With `CNC(=O)C1(N2C[C@@H](C(C)C)NC2=O)Cc2ccc(NC(=O)[C@@H](NC(=O)c3ccnn3C)C3CCC(F)(F)CC3)cc2C1` (stereo partly drawn) [Example 67, N-((1S)-1-(4,4-difluorocyclohexyl)-2-((2-((R)-4-isopropyl-2-oxoimidazolidin-1-yl)-2-(methylcarbamoyl)-2,3-dihydro-1H-inden-5-yl)amino)-2-oxoethyl)-1-methyl-1H-pyrazole-5-carboxamide], the pIC50 in experiment [1] was 7.15; in experiment [2] (Homo sapiens, HT-29, 48 h), 6.44.

Regarding `CC[C@@H]1CN(C2(C(=O)NC)Cc3cc4nc([C@@H](NC(=O)c5ccnn5C)C5CCCCC5)[nH]c4cc3C2)C(=O)N1` [Example 31, 2-((S)-cyclohexyl(1-methyl-1H-pyrazole-5-carboxamido)methyl)-6-((R)-4-ethyl-2-oxoimidazolidin-1-yl)-N-methyl-1,5,6,7-tetrahydroindeno[5,6-d]imidazole-6-carboxamide], the pIC50 is 6.69 in experiment [1] and 6.94 in experiment [2] (Homo sapiens, HT-29, 48 h).

For `CNC(=O)C1(N2CC(C)(C)CNC2=O)Cc2ccc(NC(=O)[C@@H](NC(=O)c3ccnn3C)C3CCCCC3)cc2C1` (stereo partly drawn) [Example 70, N-((1S)-1-cyclohexyl-2-((2-(5,5-dimethyl-2-oxotetrahydropyrimidin-1(2H)-yl)-2-(methylcarbamoyl)-2,3-dihydro-1H-inden-5-yl)amino)-2-oxoethyl)-1-methyl-1H-pyrazole-5-carboxamide], the pIC50 in experiment [1] was 7.59; in experiment [2] (Homo sapiens, HT-29, 48 h), 7.15.

As to `CC(C)[C@@H]1CN(C2(C(=O)NCC(F)(F)F)Cc3ccc(NC(=O)[C@@H](NC(=O)c4ccnn4C)C4CCCCC4)cc3C2)C(=O)N1` (stereo partly drawn) [Example 68, N-((1S)-1-cyclohexyl-2-((2-((R)-4-isopropyl-2-oxoimidazolidin-1-yl)-2-((2,2,2-trifluoroethyl)carbamoyl)-2,3-dihydro-1H-inden-5-yl)amino)-2-oxoethyl)-1-methyl-1H-pyrazole-5-carboxamide], the pIC50 is 7.52 in experiment [1] and 7.43 in experiment [2] (Homo sapiens, HT-29, 48 h).

Turning to `CC1CN(Cc2cc3cc(NC(=O)[C@@H](NC(=O)c4ccnn4C)C4CCCCC4)ccc3o2)C(=O)N1` (stereo partly drawn) [Example 11, N-((1S)-1-cyclohexyl-2-((2-((4-methyl-2-oxoimidazolidin-1-yl)methyl)benzofuran-5-yl)amino)-2-oxoethyl)-1-methyl-1H-pyrazole-5-carboxamide], the pIC50 in experiment [1] is 5.77; in experiment [2] (Homo sapiens, HT-29, 48 h), 5.19.

As for `CNC(=O)C1(N2C[C@@H](C(C)C)NC2=O)Cc2ccc(NC(=O)C(NC(=O)c3ccnn3C)C3C4CC5CC(C4)CC3C5)cc2C1` (stereo partly drawn) [Example 111, N-(1-((1R,3S,5R,7R)-adamantan-2-yl)-2-((2-((R)-4-isopropyl-2-oxoimidazolidin-1-yl)-2-(methylcarbamoyl)-2,3-dihydro-1H-inden-5-yl)amino)-2-oxoethyl)-1-methyl-1H-pyrazole-5-carboxamide], the pIC50 was 7.26 in experiment [1] and 6.95 in experiment [2] (Homo sapiens, HT-29, 48 h).

For the compound `CNC(=O)C1(N2CC3(CC3)CNC2=O)Cc2ccc(NC(=O)C(NC(=O)c3ccnn3C)C3CCC(C(F)(F)F)CC3)cc2C1` (centres unmarked) [Example 164, 1-methyl-N-(2-((2-(methylcarbamoyl)-2-(6-oxo-5,7-diazaspiro[2.5]octan-5-yl)-2,3-dihydro-1H-inden-5-yl)amino)-2-oxo-1-(4-(trifluoromethyl)cyclohexyl)ethyl)-1H-pyrazole-5-carboxamide], the pIC50 was 7.45 in experiment [1] and 6.95 in experiment [2] (Homo sapiens, HT-29, 48 h).

As to `CNC(=O)C1(N2CC3(CC3)CNC2=O)Cc2ccc(NC(=O)[C@@H](NC(=O)c3ccnn3C)C3CCCCC3)cc2C1` (stereo partly drawn) [Example 102, N-((1S)-1-cyclohexyl-2-((2-(methylcarbamoyl)-2-(6-oxo-5,7-diazaspiro[2.5]octan-5-yl)-2,3-dihydro-1H-inden-5-yl)amino)-2-oxoethyl)-1-methyl-1H-pyrazole-5-carboxamide], the pIC50 was 8.02 in experiment [1] and 7.76 in experiment [2] (Homo sapiens, HT-29, 48 h).

The values above are taken from patent publication US20250154138A1, “Small Molecule IL-17A Modulators” (BeiGene, Ltd., priority 2022, published 2025).
